For the assay, the target named is T1, sodium-proton exchanger of subtype 3 (NHE3) (Homo sapiens, UniProt P48764).
T1 construct: expressed in transfected cells
T1 sequence (P48764 26-834): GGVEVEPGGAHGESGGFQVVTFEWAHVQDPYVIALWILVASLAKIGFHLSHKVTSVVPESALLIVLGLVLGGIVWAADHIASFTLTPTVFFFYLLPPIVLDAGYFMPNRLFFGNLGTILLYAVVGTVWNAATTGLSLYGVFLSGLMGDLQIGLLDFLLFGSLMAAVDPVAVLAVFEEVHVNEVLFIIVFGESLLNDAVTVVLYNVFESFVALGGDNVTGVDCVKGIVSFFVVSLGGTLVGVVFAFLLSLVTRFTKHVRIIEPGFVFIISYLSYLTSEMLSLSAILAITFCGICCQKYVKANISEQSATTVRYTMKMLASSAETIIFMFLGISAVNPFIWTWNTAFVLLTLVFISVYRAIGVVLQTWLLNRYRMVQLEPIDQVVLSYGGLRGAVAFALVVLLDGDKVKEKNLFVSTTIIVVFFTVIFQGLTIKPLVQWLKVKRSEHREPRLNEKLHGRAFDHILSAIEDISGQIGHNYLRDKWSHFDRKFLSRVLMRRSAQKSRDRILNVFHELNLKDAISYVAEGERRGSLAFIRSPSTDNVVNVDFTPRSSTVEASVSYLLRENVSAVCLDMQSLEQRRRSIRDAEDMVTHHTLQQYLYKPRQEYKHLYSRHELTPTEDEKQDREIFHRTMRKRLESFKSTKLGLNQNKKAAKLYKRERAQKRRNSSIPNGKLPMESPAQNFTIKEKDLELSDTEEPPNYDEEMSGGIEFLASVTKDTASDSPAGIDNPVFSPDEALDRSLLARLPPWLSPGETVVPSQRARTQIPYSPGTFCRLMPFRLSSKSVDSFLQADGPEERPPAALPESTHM
The experiment in a line: Recovery of intracellular pH (pHi) after acidification in LAP1 cells stably expressing NHE3 (BCECF fluorescence, FLIPR). In kind it is cell-based. The following applies: LAP1 cells stably expressing NHE3; pH recovery after acidification; range 1 is % inhibition at 10 μM; read-out: Activity range (inhibitory effect on NHE3).

Where only a bound is given, the exact number is not on record here.

On to `CS(=O)(=O)c1ccc(CO[C@H]2c3cc(Cl)cc(Cl)c3C[C@@H]2N2CC[C@@H](O)C2)c(Cl)c1` [Example 24, (R)-1-[(1S,2S)-4,6-dichloro-1-(2-chloro-4-methanesulfonylbenzyloxy)indan-2-yl]pyrrolidin-3-ol], for which the inhibition at 10 µM fell in the range of 20 to 50%.

Consider `Cc1nnc(C)n1-c1ccc(O[C@H]2c3cc(Cl)ccc3C[C@@H]2N2CC[C@@H](F)C2)c(Cl)c1` [Example 558, 4-{3-chloro-4-[trans-(1S,2S)-6-chloro-2-((R)-3-fluoropyrrolidin-1-yl)indan-1-yloxy]phenyl}-3,5-dimethyl-4H-[1,2,4]triazole], for which the IC50 is under 1000 nM.

As for `Cc1nnc(C)n1-c1ccc(O[C@H]2c3cc(Cl)ccc3C[C@@H]2N2CCCC2)c(F)c1` [Example 501, 4-[4-(trans-(1S,2S)-6-chloro-2-pyrrolidin-1-ylindan-1-yloxy)-3-fluorophenyl]-3,5-dimethyl-4H-[1,2,4]triazole], the IC50 is under 1000 nM.

In the case of `CO[C@@H]1CCN(C2Cc3ccccc3C2Oc2ccc(S(N)(=O)=O)c(Cl)c2Cl)C1` (mixture of isomers) [Example 359, 2,3-dichloro-4-[rac-trans-(1,2)-2-((R)-3-methoxypyrrolidin-1-yl)indan-1-yloxy]benzenesulfonamide], the IC50 was 1000 to 10000 nM.

For the compound `CC(=O)Nc1cccc(O[C@@H]2c3ccccc3C[C@H]2N2CCC(CN)C2)c1` (mixture of isomers) [Example 686, N-{3-[rac-trans-(1,2)-2-(3-aminomethylpyrrolidin-1-yl)indan-1-yloxy]phenyl}acetamide], the IC50 was in the range of 1000 to 10000 nM.

Turning to `CC(=O)Nc1cccc(O[C@H]2c3cccc(C)c3C[C@@H]2N2CCCC2)c1` (racemic) [Example 653, N-[3-(rac-trans-(1,2)-4-methyl-2-pyrrolidin-1-ylindan-1-yloxy)phenyl]acetamide], the IC50 lay within 1000 to 10000 nM.

For the compound `Cc1nnc(C)n1-c1ccc(O[C@H]2c3cc(Cl)cc(Cl)c3C[C@@H]2N2CCCC2)c(F)c1` [Example 499, 4-[4-(trans-(1S,2S)-4,6-dichloro-2-pyrrolidin-1-ylindan-1-yloxy)-3-fluorophenyl]-3,5-dimethyl-4H-[1,2,4]triazole], the IC50 is under 1000 nM.

In the case of `Cn1ccn(-c2ccc(O[C@H]3c4cc(Cl)cc(Cl)c4C[C@@H]3N3CC[C@@H](O)C3)cc2)c1=O` [Example 331, 1-{4-[trans-(1S,2S)-4,6-dichloro-2-((R)-3-hydroxypyrrolidin-1-yl)indan-1-yloxy]phenyl}-3-methyl-1,3-dihydroimidazol-2-one], the IC50 is under 1000 nM.

On to `CC(=O)Nc1cccc(O[C@H]2c3ccccc3CC[C@@H]2N2CCC[C@H](N)C2)c1` (racemic) [Example 684, N-{3-[rac-trans-(1,2)-2-((S)-3-aminopiperidin-1-yl)-1,2,3,4-tetrahydronaphthalen-1-yloxy]phenyl}acetamide], for which the inhibition at 10 µM lay in the range of 20 to 50%.

Take `N[C@H]1CCCN([C@H]2CCc3ccccc3[C@@H]2Oc2cccc3ncccc23)C1` (racemic) [Example 193, (S)-1-[rac-trans-(1,2)-1-(quinolin-5-yloxy)-1,2,3,4-tetrahydronaphthalen-2-yl]piperidin-3-ylamine]: the IC50 is 1000 to 10000 nM.

On to `N#Cc1cc(Cl)ccc1O[C@H]1c2ccccc2CC[C@@H]1N1CCC[C@H](N)C1` (racemic) [Example 371, 2-[rac-trans-(1,2)-2-((S)-3-aminopiperidin-1-yl)-1,2,3,4-tetrahydronaphthalen-1-yloxy]-5-chlorobenzonitrile], for which the inhibition at 10 µM was 20 to 50%.

For the origin of these results see US8822449B2, “Substituted aminoindanes and analogs thereof, and the pharmaceutical use thereof” (Sanofi, priority 2008, dated 2014).
